Experimental data: patent EP0499831A2, “Combination of active agents comprising a sydnonimin derivate and a hirudin” (CASSELLA Aktiengesellschaft, priority 1991, dated 1992)

Experiments:
Coronarthrombose = assay: Coronary thrombosis by the method of Folts et al.: frequency of cyclic blood flow variations (CFV's) in the damaged, stenosed left descending coronary artery of anaesthetised pigs; format: in vivo, Hausschweinen
Description: Bei den tief narkotisierten Tieren wurde der Thorax eröffnet; die linke absteigende Coronararterie wurde freipräpariert und mit einem elektromagnetischen Blutströmungsmeßkopf versehen. Distal des Meßkopfes wurde das Coronargefäß durch kurzes (1 s) Quetschen mit einer Gefäßklemme geschädigt. Auf diese Stelle wurde ein Plastikkonstriktor (innerer Durchmesser 1.7 - 2.8 mm, Länge 2 mm) gesetzt, der das Gefäß stenosiert. […] Die Thromben wurden durch Bestimmung der Frequenz (Anzahl pro 60 min) der zyklischen Blutströmungsveränderungen quantifiziert. […] 0.1 mg/kg Molsidomin i.v. zusammen mit 0.1 mg/kg r-Hirudin i.v., gefolgt von 0.1 mg/kg·60 min r-Hirudin - Infusion.
Der Versuch wurde 1 Stunde nach Ende der Infusion bzw. 2 Stunden nach Bolusinjektion der Substanzen beendet. Die Frequenzen der zyklischen Blutströmungsveränderungen in der Stunde vor und in der ersten und zweiten Stunde nach Injektion der Prüfsubstanzen wurden für jede Versuchsgruppe gemittelt. Die mittleren Frequenzen der Zyklen vor und nach Substanzverabreichung wurden statistisch miteinander verglichen (Student-t-Test für verbundene Stichproben). Ein p - Wert von < 0.05 galt als signifikanter Unterschied.

[1] = Systolic and diastolic peripheral arterial blood pressure measured in the same animals; format: in vivo, Hausschweinen; conditions: Molsidomin 0.1 mg/kg i.v. alone (Gruppe 1) or with r-Hirudin total 0.2 mg/kg i.v. (Gruppe 3)
Source text: Diese Wirkung wurde in folgendem Test ermittelt: Bei männlichen, ca. 4 Monate alten Hausschweinen wurde eine Coronarthrombose nach der Methode von Folts et al (Circulation 1976, 54; 365 - 70) erzeugt. Bei den tief narkotisierten Tieren wurde der Thorax eröffnet; die linke absteigende Coronararterie wurde freipräpariert und mit einem elektromagnetischen Blutströmungsmeßkopf versehen. Distal des Meßkopfes wurde das Coronargefäß durch kurzes (1 s) Quetschen mit einer Gefäßklemme geschädigt. Auf diese Stelle wurde ein Plastikkonstriktor (innerer Durchmesser 1.7 - 2.8 mm, Länge 2 mm) gesetzt, der das Gefäß stenosiert. Diese Versuchsbedingungen führten zum Auftreten regelmäßiger zyklischer Blutströmungsveränderungen (CFV's), verursacht durch die wiederholte Bildung und Embolisierung von Thromben an der geschädigten stenosierten Stelle. Die Thromben wurden durch Bestimmung der Frequenz (Anzahl pro 60 min) der zyklischen Blutströmungsveränderungen quantifiziert. […]

CCOC(=O)[N-]c1cn(N2CCOCC2)n[o+]1 [Molsidomin, N-Ethoxycarbonyl-3-morpholino-sydnonimin]
Anzahl thrombotischer Flowzyklen (n/60 min) 1. Stunde nach Substanzinjektion (Coronarthrombose; 1st hour after injection, Molsidomin 0.1 mg/kg i.v. bolus, r-Hirudin total 0.2 mg/kg (0.1 mg/kg i.v. bolus + i.v. infusion over 60 min), combination: both, n=6): 19 ± 3 n/60 min
Anzahl thrombotischer Flowzyklen (n/60 min) 1. Stunde Vorphase (Coronarthrombose; baseline hour before substance injection, mean of group, n=6): 16 ± 2 n/60 min
antithrombotische Wirkung der Einzeldosierungen (Coronarthrombose; preliminary experiments (Vorversuche), single doses: Molsidomin 0.1 mg/kg i.v., r-Hirudin total 0.2 mg/kg i.v.): gerade nicht antithrombotisch wirkend
Senkung des diastolischen Blutdrucks ([1]; decrease not significant): 10 ± 5 mm Hg
Senkung des systolischen Blutdrucks ([1]; maximal decrease, p < 0.05): 18 ± 5 mm Hg
